{
  "source": "paper PMC12196235",
  "about": "“Enhancing the Pharmacological Properties of Triterpenes Through Acetylation: An Anticancer and Antioxidant Perspective” (Molecules, 2025)",
  "key": {"[1]": {"tested_on": "CCRF-CEM, CEM (human T lymphoblastic leukemia)", "details": "cited from earlier work"}, "SKOV-3": {"tested_on": "SKOV-3", "experiment": "Apoptosis assay (Cell Death Detection ELISA Plus), SKOV-3", "type": "cell-based, human", "description": "The induction of apoptosis by tested compounds was determined with Cell Death Detection ELISA Plus from Roche Diagnostics GmbH (Mannheim, Germany).\nCell Death Detection ELISA Plus is an enzyme immunoassay for determining cytoplasmic histone-associated DNA fragments (mono- and […]) after induced cell death. Cells (10^4) were pipetted into wells of 96-well plates, and test compounds were added at final concentrations of 0.1, 1.0 and 10.0 µg × mL^−1. Cells incubated in the absence of test compounds served as negative controls. After 4 h of incubation, cells were harvested by centrifugation of the plates for 10 min at 200× g. Supernatants were removed carefully, and cell pellets were resuspended in 200 µL of cell lysis buffer and incubated for 30 min at room temperature. After centrifugation of the plates (10 min at 200× g), 20 µL of cell lysates was transferred in duplicate into wells of provided streptavidin-coated microplates. Then, 80 µL of the immunoreagent containing a mixture of anti-histone-biotin monoclonal antibody and anti-DNA-peroxidase monoclonal antibody was added to each well. The microplates were covered with a provided adhesive foil and incubated for 2 h at room temperature. Thereafter, the solution in the wells was removed by tapping the microplate. The wells were rinsed three times with incubation buffer, and 100 µL of substrate (2,2′-azino-bis [3-ethylbenzothiazoline-6-sulphonic acid], ABTS) was added to each well. After 10–20 min, 100 µL of ABTS stop solution was pipetted to each well, and the absorbance was read at 405 nm (test wavelength) and 490 nm (reference wavelength). The apoptotic index was calculated based on the enrichment of mono- and oligonucleosomes according to the following equation:apoptotic index = [{A405(sample) − A490(sample)}/{A405(negative control) − A490(negative control)}]"}, "[2]": {"tested_on": "SFV (Semliki Forest virus)", "parameters": "method as in PMID 19839605", "details": "ref 43; read-out: antiviral IC50 (SFV); cited from earlier work"}, "C-6": {"tested_on": "C-6", "details": "ref 47; read-out: anticancer IC50 (C-6); cited from earlier work"}, "CUPRAC antioxidant assay": {"experiment": "CUPRAC antioxidant assay", "details": "calculated from Trolox standard curve", "summary_of_the_method": "(§1)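 The CUPRAC reagent was made from 7.5 mM neocuproine, 10 mM CuCl2 and ammonium acetate buffer pH 7.0; the DPPH reagent was a 0.2 mM solution. Both were read spectrophotometrically in plates. Activity is given as % inhibition and as Trolox equivalents from standard curves.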"}, "[3]": {"tested_on": "A-549 (human lung carcinoma)", "details": "ref 47; read-out: anticancer IC50 (A-549); cited from earlier work"}, "[4]": {"tested_on": "HPOC (human ovarian carcinoma)", "details": "ref 47; read-out: anticancer IC50 (HPOC); cited from earlier work"}, "DPPH antioxidant assay": {"experiment": "DPPH antioxidant assay", "details": "calculated from Trolox standard curve", "summary_of_the_method": "as §1"}, "[5]": {"tested_on": "HDF (human dermal fibroblasts)", "experiment": "MTT assay, normal HDF", "type": "cell-based", "details": "Homo sapiens, Fibroblast, read-out: IC50 (±SD), HDF", "summary_of_the_method": "(§2)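 Using the MTT method, survival of cancer lines and normal dermal fibroblasts was quantified by formazan formation. Culture: DMEM for HeLa, RPMI 1640 for MCF-7 and A-549, Fibroblast Basal Medium for HDF, with 10% FBS, 37 °C.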"}, "[6]": {"tested_on": "HPGBM (human glioblastoma multiforme)", "details": "ref 47; read-out: anticancer IC50 (HPGBM); cited from earlier work"}, "[7]": {"tested_on": "MCF-7 (human breast carcinoma)", "experiment": "MTT assay, MCF-7", "type": "cell-based", "summary_of_the_method": "as §2"}, "[8]": {"tested_on": "HeLa (human cervical epithelioid carcinoma)", "experiment": "MTT assay, HeLa", "type": "cell-based", "summary_of_the_method": "as §2"}, "[9]": {"tested_on": "FTC-238 (human thyroid carcinoma)", "details": "ref 47; read-out: anticancer IC50 (FTC-238); cited from earlier work"}, "[10]": {"tested_on": "TE-671 (human rhabdomyosarcoma–medulloblastoma)", "details": "ref 47; read-out: anticancer IC50 (TE-671); cited from earlier work"}},
  "note": "“And” between values parts separate entries of the source, which are not always exact repeats. Equal values may be shown once. Read-outs that look alike come from different tables or passages of the source.",
  "data": [
    {"compound": "C=C(C)[C@@H]1CC[C@]2(CO)CC[C@]3(C)[C@H](CC[C@@H]4[C@@]5(C)CC[C@H](O)C(C)(C)[C@@H]5CC[C@]43C)[C@@H]12", "note": "[5a, betulin]", "values": [
      {"measurement": "IC50", "setting": "[1]; ref 26, read-out: anticancer IC50 (CCRF-CEM, CEM)", "result": 250, "unit": "µM"},
      {"measurement": "anticancer IC50 (CCRF/CEM)", "setting": "[1]; ref 49", "result": 10.9, "unit": "µg/mL"},
      {"measurement": "IC50", "setting": "[1]; ref 49, read-out: anticancer IC50 (CCRF/CEM)", "result": 24.6, "unit": "µM"},
      {"measurement": "mean apoptotic index", "setting": "SKOV-3; 0.1 µg/mL, mean over SKOV-3 and PC-3", "result": 5.54},
      {"measurement": "Apoptotic index (AI), SKOV-3", "setting": "SKOV-3; SKOV-3, 4 h incubation, enrichment of mono- and oligonucleosomes vs negative control", "result": "5.26 (0.03)"},
      {"measurement": "IC50", "setting": "[2]", "result": 45.5, "unit": "µM"},
      {"measurement": "IC50", "setting": "C-6", "result": 5.9, "unit": "µM"},
      {"measurement": "Trolox Equivalent, CUPRAC Assay", "setting": "CUPRAC antioxidant assay", "result": "0.299 mg/mL and 0.299 ± 0.00663 mg/mL"},
      {"measurement": "IC50", "setting": "[3]", "result": 7.4, "unit": "µM"},
      {"measurement": "IC50", "setting": "[4]", "result": 2.8, "unit": "µM"},
      {"measurement": "Trolox Equivalent, DPPH Assay", "setting": "DPPH antioxidant assay", "result": "0.01077 mg/mL and 0.01077 ± 0.000446 mg/mL"},
      {"measurement": "IC50", "setting": "[5]", "result": 15.8, "unit": "µM"},
      {"measurement": "IC50", "setting": "[6]", "result": 3.4, "unit": "µM"},
      {"measurement": "IC50", "setting": "[7]; Homo sapiens, MCF7, MTT assay, MCF-7, read-out: IC50 (±SD), MCF-7", "result": 18.1, "unit": "µM"},
      {"measurement": "Selectivity index (SI), MCF-7", "setting": "[7]; IC50 HDF / IC50 MCF-7", "result": 0.87},
      {"measurement": "IC50", "setting": "[8]; Homo sapiens, MTT assay, HeLa, read-out: IC50 (±SD), HeLa", "result": 18.3, "unit": "µM"},
      {"measurement": "Selectivity index (SI), HeLa", "setting": "[8]; IC50 HDF / IC50 HeLa", "result": 0.86},
      {"measurement": "IC50", "setting": "[9]", "result": 6.8, "unit": "µM"},
      {"measurement": "IC50", "setting": "[10]", "result": 10.3, "unit": "µM"}
    ]}
  ]
}
